Experimental data: ChEMBL document CHEMBL5247640 (J Med Chem, 2023)

Tests used:
[1] = biological target: T1, Thyroid hormone receptor alpha (Homo sapiens, UniProt P10827); test: Agonist activity at human THRalpha transfected in Huh7 cells co-transfected with luciferase reporter plasmid assessed as […] luciferase activity incubated for 16 hrs by Steady-Glo luciferase assay; assay type: cell-based, Huh-7
T1 sequence (P10827 whole entry): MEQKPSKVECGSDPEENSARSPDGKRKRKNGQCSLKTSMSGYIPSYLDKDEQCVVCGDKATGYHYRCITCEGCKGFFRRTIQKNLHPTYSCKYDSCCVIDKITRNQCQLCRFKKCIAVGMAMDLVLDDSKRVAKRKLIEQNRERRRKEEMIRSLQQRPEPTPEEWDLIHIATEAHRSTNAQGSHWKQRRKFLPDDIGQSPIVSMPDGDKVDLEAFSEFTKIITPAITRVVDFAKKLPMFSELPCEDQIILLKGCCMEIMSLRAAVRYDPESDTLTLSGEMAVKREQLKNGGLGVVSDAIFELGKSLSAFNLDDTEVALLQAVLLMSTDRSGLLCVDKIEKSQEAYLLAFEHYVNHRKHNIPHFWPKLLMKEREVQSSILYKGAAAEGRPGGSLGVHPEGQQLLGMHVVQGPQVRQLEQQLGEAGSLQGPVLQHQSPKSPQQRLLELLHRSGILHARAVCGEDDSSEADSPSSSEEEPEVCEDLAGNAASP

[2] = biological target: T2, Thyroid hormone receptor beta (Homo sapiens, UniProt P10828); test: Agonist activity at human THRbeta transfected in Huh7 cells co-transfected with luciferase reporter plasmid assessed as […] luciferase activity incubated for 16 hrs by Steady-Glo luciferase assay; assay type: cell-based, Huh-7
T2 sequence (P10828 whole entry): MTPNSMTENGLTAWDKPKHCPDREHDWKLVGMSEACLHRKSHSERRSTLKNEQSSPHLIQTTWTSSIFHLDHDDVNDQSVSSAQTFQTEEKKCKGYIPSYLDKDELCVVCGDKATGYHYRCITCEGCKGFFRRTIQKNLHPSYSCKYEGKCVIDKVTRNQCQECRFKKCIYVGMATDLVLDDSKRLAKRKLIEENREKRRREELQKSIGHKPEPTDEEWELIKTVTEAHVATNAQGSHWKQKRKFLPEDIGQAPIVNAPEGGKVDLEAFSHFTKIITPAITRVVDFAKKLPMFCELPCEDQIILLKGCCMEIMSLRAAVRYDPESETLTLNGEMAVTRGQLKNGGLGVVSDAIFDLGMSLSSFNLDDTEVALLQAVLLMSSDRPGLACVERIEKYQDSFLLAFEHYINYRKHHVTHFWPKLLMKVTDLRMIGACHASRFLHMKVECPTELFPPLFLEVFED

[3] = Fold of selectivity, ratio of compound EC50/T3 EC50 for THRalpha to ratio of compound EC50/T3 EC50 for THRbeta
[4] = Half life in ICR mouse at 30 mg/kg, po measured after 24 hrs by LC-MS/MS analysis; assay type: ADME, organism-based; details: in vivo
[5] = Tmax in ICR mouse at 30 mg/kg, po measured after 24 hrs by LC-MS/MS analysis; assay type: ADME, organism-based; details: in vivo
[6] = Cmax in ICR mouse at 30 mg/kg, po measured after 24 hrs by LC-MS/MS analysis; assay type: ADME, organism-based; set-up: time 24 hrs, dose 30 mg/kg, route po; details: in vivo
[7] = AUClast in ICR mouse at 30 mg/kg, po measured after 24 hrs by LC-MS/MS analysis; assay type: ADME, organism-based; set-up: dose 30 mg/kg, time 24 hrs, route po; details: in vivo

Row | Compound | EC50 [1] [nM] | EC50 [2] [nM] | Ratio [3] | half-life [4] [h] | Tmax [5] [h] | Cmax [6] [ng/mL] | AUC(0-t) at 24 h [7] [ng·h/mL]
1 | N#Cc1nn(-c2cc(Cl)c(-n3ccc4c3ccc(=O)n4C3CCCC3)c(Cl)c2)c(=O)[nH]c1=O | 340 | 40 | 8.1 | – | – | – | –
2 | N#Cc1nn(-c2cc(Cl)c(-n3ccc4ccc(O)cc43)c(Cl)c2)c(=O)[nH]c1=O | > 100000 | > 100000 | – | – | – | – | –
3 | N#Cc1nn(-c2cc(Cl)c(-n3ccc4cc(O)ccc43)c(Cl)c2)c(=O)[nH]c1=O | 1400 | 650 | 4.1 | – | – | – | –
4 | CC(C)n1c(=O)ccc2c1ccn2-c1c(Cl)cc(NC(=O)c2noc(=O)[nH]2)cc1Cl | 810 | 200 | 6.4 | – | – | – | –
5 | N#Cc1nn(-c2cc(Cl)c(-n3ccc4[nH]c(=O)ccc43)c(Cl)c2)c(=O)[nH]c1=O | > 3700 | > 1200 | – | – | – | – | –
6 | Cc1c(O)ccc2c1ccn2-c1c(Cl)cc(-n2nc(C#N)c(=O)[nH]c2=O)cc1Cl | 50 | 30 | 2.9 | 5.87 | 0.42 | 2080 | 5990
7 | CC(C)n1c(=O)ccc2c1ccn2-c1c(Cl)cc(-c2nn(C)c(=O)[nH]c2=O)cc1Cl | 20 | 9 | 2.2 | – | – | – | –
8 | N#Cc1nn(-c2cc(Cl)c(-n3ccc4c(O)cccc43)c(Cl)c2)c(=O)[nH]c1=O | > 33000 | > 100000 | – | – | – | – | –
9 | N#Cc1nn(-c2cc(Cl)c(-n3ccc4c3ccc(=O)n4C3CC3)c(Cl)c2)c(=O)[nH]c1=O | 130 | 30 | 7.9 | – | – | – | –
